Assay results as given in PubChem BioAssay (NCI).
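96-well plates; 48 h exposure; 5 concentrations. Endpoints by linear interpolation between flanking doses. Not reached: highest tested concentration assigned. The concentration for 50% growth inhibition is given as GI50. TGI denotes the concentration required for complete inhibition of growth.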

Experiments:
Assay in all cases: NCI anticancer screen, dose series, 48 h
[1] = test system: A498 renal
[2] = test system: EKVX NSCLC
[3] = test system: K-562 leukemia
[4] = test system: MCF7 breast
[5] = test system: MOLT-4 leukemia
[6] = test system: NCI-H23 lung
[7] = test system: NCI/ADR-RES ovarian
[8] = test system: PC-3 prostate
[9] = test system: UO-31 renal
[10] = test system: NCI-H460 lung

| Structure (SMILES) | TGI [1] | TGI [2] | TGI [3] | TGI [4] | TGI [5] | TGI [6] | TGI [7] | TGI [8] | TGI [9] | TGI [10] | GI50 [1] | GI50 [2] | GI50 [3] | GI50 [4] | GI50 [5] | GI50 [10] | GI50 [8] | GI50 [9] | GI50 [6] | GI50 [7] |
| --- | --- | --- | --- | --- | --- | --- | --- | --- | --- | --- | --- | --- | --- | --- | --- | --- | --- | --- | --- | --- |
| Cc1ccc([N+](=O)[O-])cc1S(=O)(=O)Nc1ccc(C2=NN(C(=O)c3ccccc3)C(c3ccccc3O)C2)cc1 (stereo unspecified) | 60.6 µM | 31 µM | > 100 µM | 26.7 µM | 51.5 µM | 35.5 µM | > 100 µM | 29 µM | 76.6 µM |  |  |  |  |  |  |  |  |  |  |  |
| CN(CCc1ccccn1)c1ccc2c(c1)Cc1ccccc1-2 | 50.6 µM | 62 µM | > 100 µM | > 100 µM | > 100 µM | > 100 µM | > 100 µM | 23.9 µM | > 100 µM | > 100 µM |  |  |  |  |  |  |  |  |  |  |
| C=C(CN(C)C)C(=O)c1ccccc1Cl | > 96 µM | > 76.6 µM | > 75.4 µM |  | > 75.2 µM | 54.6 µM |  |  | 33.6 µM | > 100 µM |  |  |  |  |  |  |  |  |  |  |
| CCCCSCCC(N)P(=O)(O)O (stereo unspecified) |  |  | > 100 µM | > 100 µM | > 100 µM | > 100 µM | > 100 µM | > 100 µM | > 100 µM | > 100 µM |  |  |  |  |  |  |  |  |  |  |
| Oc1ccc(Cl)cc1C1=Nn2c(COc3ccc4c(c3)CCCC4)nnc2SC1 | 11.8 µM | 34.7 µM | 49.4 µM | 32.5 µM | 43.8 µM | 26.9 µM | 41.2 µM | 26.7 µM | 23.4 µM | 30.9 µM |  |  |  |  |  |  |  |  |  |  |
| O=C1CNc2cc(N3CCCCC3)ccc2N1 |  | 50.9 µM | > 100 µM | > 100 µM | > 100 µM | > 100 µM | > 100 µM | > 100 µM | > 100 µM | > 100 µM |  |  |  |  |  |  |  |  |  |  |
| CN(CCN1C(=O)c2cccc3cccc(c23)C1=O)CCN1C(=O)c2cccc3cccc(c23)C1=O |  | > 100 µM | > 100 µM | > 100 µM | > 100 µM | 43.7 µM | > 100 µM | > 100 µM | 28.8 µM | > 100 µM |  |  |  |  |  |  |  |  |  |  |
| COc1cc(/C=C2\CC3C4CC[C@H]5C[C@@H](O)CC[C@]5(C)C4CC[C@]3(C)\C2=N\O)cc(OC)c1OC (stereo partly specified) | 31.1 µM | > 100 µM | > 100 µM | 26.8 µM | 37.5 µM | > 100 µM | 48.6 µM | 55.1 µM | 17.4 µM | 82.9 µM |  |  |  |  |  |  |  |  |  |  |
| O=S(C(c1ccccc1)=P(c1ccccc1)(c1ccccc1)c1ccccc1)c1ccc(Cl)cc1 (stereo unspecified) | 37.1 µM | > 100 µM | > 100 µM | > 100 µM | > 100 µM | > 100 µM | > 100 µM | 68.4 µM | > 100 µM | > 100 µM |  |  |  |  |  |  |  |  |  |  |
| CS(=O)(=O)Nc1ccc(NCc2cnc3ccc4[nH]cccc4c23)cc1 | 51.8 µM | > 100 µM | 53.7 µM | 94.9 µM | 33.6 µM | 59.6 µM | > 100 µM | 48.1 µM | 78.2 µM | > 100 µM |  |  |  |  |  |  |  |  |  |  |
| O=C1/C(=C/c2ccc([N+](=O)[O-])cc2)Sc2scc(-c3cccc([N+](=O)[O-])c3)[n+]21 | 7.98 µM | 25 µM | 8.16 µM | > 38.3 µM | > 20.1 µM | 42 µM | 26.3 µM | 26.8 µM | 22 µM | 26.1 µM |  |  |  |  |  |  |  |  |  |  |
| C#C[C@]1(O)[C@@H](CO)O[C@@H](n2ccc(=O)[nH]c2=O)[C@@H]1O | > 100 µM | > 100 µM | > 100 µM | > 100 µM |  | 7.37 µM |  | > 29.6 µM | 0.183 µM | > 100 µM |  |  |  |  |  |  |  |  |  |  |
| NC(N)=N/N=C/c1c(-c2cccs2)nc2n1CCS2 | > 100 µM | 85.7 µM | 71.8 µM | 35.1 µM | 28.5 µM |  |  | 36 µM | > 100 µM | 40.6 µM | 5.65 µM | 27.7 µM | 27.9 µM | 17.6 µM | 13.9 µM | 18.7 µM | 19.7 µM | 70.4 µM |  |  |
| CCOC(=O)c1cccc(N=Nc2ncc(/C=C/C(=O)OC)[nH]2)c1 | 67.8 µM | > 100 µM | > 100 µM | 86.2 µM | 28.9 µM | > 100 µM | > 100 µM | > 100 µM | 72 µM | 34.5 µM |  |  |  |  |  |  |  |  |  |  |
| COc1ccc(-n2nc(C(=O)c3ccccc3)c3nn4c(=O)cc(-c5ccccc5)nc4nc32)cc1 | > 100 µM | > 100 µM | > 100 µM | > 100 µM | > 100 µM | > 100 µM | > 100 µM | > 100 µM | > 100 µM | > 100 µM | 66.2 µM | 53.5 µM | 40.5 µM | 30.7 µM | 34.8 µM | 32.4 µM | 50.5 µM | 28.6 µM | 67.2 µM | 34.5 µM |
